In patent US9351965B2, “Indazole derivatives useful as ERK inhibitors” (Merck Sharp & Dohme Corp., priority 2010, dated 2016):

biological target: fully phosphorylated, active Mouse ERK2 protein (Mus musculus (Mouse), UniProt P63085); test: Active ERK2 (aERK) IMAP assay; format: biochemical; conditions: IMAP fluorescence polarization; 30 μM ATP; 30 minute pre-incubation
Sequence (P63085 whole entry): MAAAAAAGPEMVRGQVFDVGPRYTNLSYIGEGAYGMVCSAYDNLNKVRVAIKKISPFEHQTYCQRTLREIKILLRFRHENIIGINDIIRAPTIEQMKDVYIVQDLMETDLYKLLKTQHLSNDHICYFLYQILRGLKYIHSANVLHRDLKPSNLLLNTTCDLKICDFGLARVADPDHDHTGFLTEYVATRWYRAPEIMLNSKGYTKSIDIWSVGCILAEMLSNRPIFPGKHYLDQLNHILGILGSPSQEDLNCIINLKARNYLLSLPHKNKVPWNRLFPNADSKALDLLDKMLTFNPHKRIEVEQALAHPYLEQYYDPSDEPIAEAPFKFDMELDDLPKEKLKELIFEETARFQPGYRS

Compound	IC50 [nM]
CC(C)Oc1cc(-c2n[nH]c3ccc(C(=O)N[C@@H]4CCC[C@](O)(Cc5ccccc5F)C4)cc23)ccn1 [compound 16, N-[3(S)-[(2-fluorophenyl)methyl]-3-hydroxy-1(R)-cyclohexyl]-3-[2-(1-methylethoxy)-4-pyridinyl]-1H-indazole-5-carboxamide]	301
CC(C)Oc1ccc(-c2n[nH]c3ccc(C(=O)N[C@@H]4CCC[C@](O)(Cc5ccccc5F)C4)cc23)cn1 [compound 17, N-[3-(S)-[(2-fluorophenyl)methyl]-3-hydroxy-1(R)-cyclohexyl]-3-[6-(1-methylethoxy)-3-pyridinyl]-1H-indazole-5-carboxamide]	44.9
CC(C)Oc1ccc(-c2n[nH]c3ccc(C(=O)N[C@@H]4CCC[C@](O)(Cc5c(F)cccc5F)C4)cc23)cn1 [compound 18, N-[3(S)-[(2,6-difluorophenyl)methyl]-3-hydroxy-1(R)-cyclohexyl]-3-[6-(1-methylethoxy)-3-pyridinyl]-1H-indazole-5-carboxamide]	140
O=C(N[C@@H]1CCC[C@](O)(Cc2c(F)cccc2F)C1)c1ccc2[nH]nc(-c3ccc4ncsc4c3)c2c1 [compound 20, 3-(6-benzothiazolyl)-N-[3(S)-[(2,6-difluorophenyl)methyl]-3-hydroxy-1(R)-cyclohexyl]-1H-indazole-5-carboxamide]	33.9
COc1cccc(F)c1C[C@@]1(O)CCC[C@@H](NC(=O)c2ccc3[nH]nc(-c4ccnc(OC(C)C)c4)c3c2)C1 [compound 25, N-[3(S)-[(2-fluoro-6-methoxyphenyl)methyl]-3-hydroxy-1(R)-cyclohexyl]-3-[2-(1-methylethoxy)-4-pyridinyl]-1H-indazole-5-carboxamide]	333
COc1cccc(F)c1C[C@@]1(O)CCC[C@@H](NC(=O)c2ccc3[nH]nc(-c4ccc(OC(C)C)cc4)c3c2)C1 [compound 26, N-[3(S)-[(2-fluoro-6-methoxyphenyl)methyl]-3-hydroxy-1(R)-cyclohexyl]-3-[4-(1-methylethoxy)phenyl]-1H-indazole-5-carboxamide]	79
Cc1cc(-c2n[nH]c3ccc(C(=O)NC4CCCC(Oc5c(C)cccc5C)C4)cc23)ccn1 (centres unmarked) [compound 31, N-[3-(2,6-dimethylphenoxy)cyclohexyl]-3-(2-methyl-4-pyridinyl)-1H-indazole-5-carboxamide]	469
Cc1cc(-c2n[nH]c3ccc(C(=O)NC4CCCC(Oc5c(F)cccc5F)C4)cc23)ccn1 (centres unmarked) [compound 32, N-[3-(2,6-difluorophenoxy)cyclohexyl]-3-(2-methyl-4-pyridinyl)-1H-indazole-5-carboxamide]	573
Cc1cc(-c2n[nH]c3ccc(C(=O)NC4CCCC(Oc5ccccc5F)C4)cc23)ccn1 (centres unmarked) [compound 33, N-[3-(2-fluorophenoxy)cyclohexyl]-3-(2-methyl-4-pyridinyl)-1H-indazole-5-carboxamide]	114
Cc1cc(-c2n[nH]c3ccc(C(=O)NN4CCCC(Oc5ccccc5Cl)C4)cc23)ccn1 (centres unmarked) [compound 36, N-[3-(2-chlorophenoxy)-1-piperidinyl]-3-(2-methyl-4-pyridinyl)-1H-indazole-5-carboxamide]	40.4
COC1(Cc2ccccc2F)CCCC(NC(=O)c2ccc3[nH]nc(-c4ccnc(C)c4)c3c2)C1 (centres unmarked) [compound 39, N-[3-[(2-fluorophenyl)methyl]-3-methoxycyclohexyl]-3-(2-methyl-4-pyridinyl)-1H-indazole-5-carboxamide]	28.5
COC1(Cc2ccccc2F)CCCC(NC(=O)c2ccc3[nH]nc(-c4ccnc(C)c4)c3c2)C1 (centres unmarked) [compound 40, N-[3-[(2-fluorophenyl)methyl]-3-methoxycyclohexyl]-3-(2-methyl-4-pyridinyl)-1H-indazole-5-carboxamide]	205
Cc1cc(-c2n[nH]c3ccc(C(=O)NC4CCCC(CO)(Oc5ccccc5)C4)cc23)ccn1 (centres unmarked) [compound 41, N-[3-(hydroxymethyl)-3-phenoxycyclohexyl]-3-(2-methyl-4-pyridinyl)-1H-indazole-5-carboxamide]	98.9
Cc1cc(-c2n[nH]c3ccc(C(=O)NC4CCCC(O)(C(F)(F)c5ccccc5)C4)cc23)ccn1 (centres unmarked) [compound 46, N-[3-(difluorophenylmethyl)-3-hydroxycyclohexyl]-3-(2-methyl-4-pyridinyl)-1H-indazole-5-carboxamide]	630
Cc1cc(-c2n[nH]c3ccc(C(=O)NC4CCCC(O)(C(=O)c5ccccc5)C4)cc23)ccn1 (centres unmarked) [compound 47, N-(3-benzoyl-3-hydroxycyclohexyl)-3-(2-methyl-4-pyridinyl)-1H-indazole-5-carboxamide]	577

Stronger by IC50, values ahead:

IC50 [nM]	Compound
15.4	Cc1nc2ccc(-c3n[nH]c4ccc(C(=O)N[C@@H]5CCC[C@](O)(Cc6c(F)cccc6F)C5)cc34)cc2s1 [compound 14, N-[3(S)-[(2,6-difluorophenyl)methyl]-3-hydroxy-1(R)-cyclohexyl]-3-(2-methyl-6-benzothiazolyl)-1H-indazole-5-carboxamide]
8.6	O=C(N[C@@H]1CCC[C@](O)(Cc2ccccc2F)C1)c1ccc2[nH]nc(-c3ccc4nccn4c3)c2c1 [compound 15, N-[3(S)-[(2-fluorophenyl)methyl]-3-hydroxy-1(R)-cyclohexyl]-3-imidazo[1,2-a]pyridin-6-yl-1H-indazole-5-carboxamide]
12.1	Cn1cc2cc(-c3n[nH]c4ccc(C(=O)N[C@@H]5CCC[C@](O)(Cc6c(F)cccc6F)C5)cc34)ccc2n1 [compound 19, N-[3(S)-[(2,6-difluorophenyl)methyl]-3-hydroxy-1(R)-cyclohexyl]-3-(2-methyl-2H-indazol-5-yl)-1H-indazole-5-carboxamide]
20.9	Cc1nc2ccc(-c3n[nH]c4ccc(C(=O)N[C@@H]5CCC[C@](O)(Cc6c(F)cccc6F)C5)cc34)cn2n1 [compound 21, N-[3-(S)-[(2,6-difluorophenyl)methyl]-3-hydroxy-1(R)-cyclohexyl]-3-(2-methyl[1,2,4]triazolo[1,5-a]pyridin-6-yl)-1H-indazole-5-carboxamide]
2	COc1cccc(F)c1C[C@@]1(O)CCC[C@@H](NC(=O)c2ccc3[nH]nc(-c4ccnc(C)c4)c3c2)C1 [compound 22, N-[3(S)-[(2-fluoro-6-methoxyphenyl)methyl]-3-hydroxy-1(R)-cyclohexyl]-3-(2-methyl-4-pyridinyl)-1H-indazole-5-carboxamide]
2.2	COc1cccc(F)c1C[C@@]1(O)CCC[C@@H](NC(=O)c2ccc3[nH]nc(-c4ccc5nccn5c4)c3c2)C1 [compound 23, N-[3(S)-[(2-fluoro-6-methoxyphenyl)methyl]-3-hydroxy-1(R)-cyclohexyl]-3-imidazo[1,2-a]pyridin-6-yl-1H-indazole-5-carboxamide]
8.9	COc1cccc(F)c1C[C@@]1(O)CCC[C@@H](NC(=O)c2ccc3[nH]nc(-c4ccc5nc(C)sc5c4)c3c2)C1 [compound 24, N-[3(S)-[(2-fluoro-6-methoxyphenyl)methyl]-3-hydroxy-1(R)-cyclohexyl]-3-(2-methyl-6-benzothiazolyl)-1H-indazole-5-carboxamide]
11.2	Cc1cc(-c2n[nH]c3ccc(C(=O)NC4CCCC(Oc5cccc(F)c5)(C(N)=O)C4)cc23)ccn1 (centres unmarked) [compound 42, N-[3-(aminocarbonyl)-3-(3-fluorophenoxy)cyclohexyl]-3-(2-methyl-4-pyridinyl)-1H-indazole-5-carboxamide]
